From US20240116946A1 (Gilead Sciences, Inc., priority 2022, published 2024)
Read-outs that look alike come from different tables or passages of the source.

Key:
[1] = biological target: recombinant SARS-CoV-2 Main protease (Mpro) (Severe acute respiratory syndrome coronavirus 2 (2019-nCoV) (SARS-CoV-2), UniProt P0DTD1); assay: Cov Mpro Biochemical IC50 Assay; details: read-out: MPro IC50
SARS-CoV-2-NLuc = assay: microbe, parasite or virus in culture; format: cell-based, SARS Coronavirus 2
[2] = recombinant SARS-CoV-2 Mpro 7.5 nM, fluorogenic peptide substrate 40 μM
[3] = Severe acute respiratory syndrome coronavirus, 48 h, read-out: MPro EC50
[4] = Severe acute respiratory syndrome coronavirus, 48 h; read-out: MPro EC50
[5] = recombinant SARS-CoV-2 Mpro, fluorogenic peptide substrate

| SMILES | IC50 [1, 2] [nM] | EC50 (SARS-CoV-2-NLuc; [3]) [nM] | EC50 (SARS-CoV-2-NLuc; [4]) [nM] | IC50 [1, 5] [nM] | EC50 (SARS-CoV-2-NLuc; read-out: MPro EC50) [nM] |
| --- | --- | --- | --- | --- | --- |
| COc1cc(-c2cc3c(s2)c(=O)n(-c2cnccn2)c(=O)n3CCC#N)c(Cl)cc1F [Example 893] | 22.1 | 136 | – | – | – |
| Cc1c2c(-n3c(=O)c4sc(-c5ccccc5C#N)cc4n(CCC#N)c3=O)cncc2nn1C [Example 896] | 59.2 | – | 479 | – | – |
| COc1ccc(C#N)c(-c2cc3[nH]c(=O)n(-c4cncc5ccc(N6CCn7nc(C(F)(F)F)nc7C6)cc45)c(=O)c3s2)c1 [Example 605] | 10.1 | 91.2 | – | – | – |
| COc1ccc(Cl)c(-c2cc3[nH]c(=O)n(-c4cncc5ccc(C(F)F)cc45)c(=O)c3s2)c1 [Example 227] | – | 25 | – | 11.3 | – |
| COc1ccc(Cl)c(-c2cc3[nH]c(=O)n(-c4cncc5ccc(N6CCS(=O)(=O)CC6)nc45)c(=O)c3s2)c1 [Example 458] | 12.1 | 188 | – | – | – |
| O=c1[nH]c2cc(-c3c(Cl)cccc3-c3cnc4n3CCC4)sc2c(=O)n1-c1cncc2ccccc12 [Example 529] | 8.44 | 34.1 | – | – | – |
| COc1cc(-c2cc3[nH]c(=O)n(-c4cncc5ccccc45)c(=O)c3cc2OC)c(Cl)cc1F [Example 672, 7-(2-chloro-4-fluoro-5-methoxyphenyl)-3-(isoquinolin-4-yl)-6-methoxyquinazoline-2,4(1H,3H)-dione] | 37.8 | 23.8 | – | – | – |
| COc1cc(-c2cc3c(s2)c(=O)n(-c2cccnc2)c(=O)n3CCC#N)c(C#N)cc1F [Example 799] | 10.3 | – | 42.9 | – | – |
| COc1cnc(Cl)c(-c2cc3c(s2)c(=O)n(-c2cncc(C)c2)c(=O)n3CCC#N)c1 [Example 885] | 7.57 | – | 22.9 | – | – |
| O=c1[nH]c2cc(-c3ccccc3Cl)sc2c(=O)n1-c1cncc2ccc(N3CC4(COC4)C3)cc12 [Example 397] | 3.51 | 15.2 | – | – | – |
| O=c1[nH]c2cc(-c3c(Cl)cccc3-c3cncc(F)c3)ccc2c(=O)n1-c1cncc2ccccc12 [Example 207] | – | 13.6 | – | 17.6 | – |
| Cc1nc(Cl)ccc1-c1cc2[nH]c(=O)n(-c3cncc4ccccc34)c(=O)c2s1 [Example 288] | – | 1050 | – | 227 | – |
| COc1cc(-c2cc3c(s2)c(=O)n(-c2cncc4ccccc24)c(=O)n3CC2(C#N)CC2)c(Cl)cc1F (single isomer, unassigned) [Example 635, 1-[[6-(2-chloro-4-fluoro-5-methoxy-phenyl)-3-(4-isoquinolyl)-2,4-dioxo-thieno[3,2-d]pyrimidin-1-yl]methyl]cyclopropanecarbonitrile] | 3.26 | – | – | – | 1.78 |
| Cc1c(-c2cccc(Cl)c2-c2ccc3c(=O)n(-c4cncc5ccccc45)c(=O)[nH]c3c2)cnn1C1CCN(C(=O)OC(C)(C)C)CC1 [Example 268] | – | 43.1 | – | 131 | – |
| COc1cc(-c2cc3c(s2)c(=O)n(-c2cncc4cccnc24)c(=O)n3CCC#N)c(Cl)cc1F (single isomer, unassigned) [Example 1037, 3-(6-(2-chloro-4-fluoro-5-methoxyphenyl)-3-(1,6-naphthyridin-8-yl)-2,4-dioxo-3,4-dihydrothieno[3,2-d]pyrimidin-1(2H)-yl)propanenitrile] | 544 | – | – | – | 362 |
| COc1cncc(-n2c(=O)c3sc(-c4cc(OC)c(F)cc4Cl)cc3n(CCC#N)c2=O)c1 [Example 870] | 2.89 | 3.41 | – | – | – |
| COc1cc(-c2cc3c(s2)c(=O)n(-c2cncc4nc(C)n(C5CC5)c24)c(=O)n3CCC#N)c(Cl)cc1F [Example 990] | 4.1 | 14.1 | – | – | – |
| Cn1c(C(F)(F)F)nc2cncc(-n3c(=O)c4sc(-c5ccccc5C#N)cc4n(CCC#N)c3=O)c21 [Example 858] | 263 | 741 | – | – | – |
| COc1cc(-c2cc3c(s2)c(=O)n(-c2cncc4cccnc24)c(=O)n3CC#N)c(Cl)cc1F [Example 708] | 4.41 | 8.71 | – | – | – |
| Cc1ccccc1-c1cc2[nH]c(=O)n(-c3cncc4ccccc34)c(=O)c2s1 [Example 7] | – | 109 | – | 24.7 | – |
| O=c1[nH]c2cc(-c3c(Cl)cccc3-c3ccn4ncnc4c3)ccc2c(=O)n1-c1cncc2ccccc12 [Example 142, 7-[2-chloro-6-([1,2,4]triazolo[1,5-a]pyridin-7-yl)phenyl]-3-(4-isoquinolyl)-1H-quinazoline-2,4-dione] | – | 31.5 | – | 8.62 | – |

| SMILES | IC50 [1, 2] [nM] | EC50 (SARS-CoV-2-NLuc; [3]) [nM] | EC50 (SARS-CoV-2-NLuc; [4]) [nM] | IC50 [1, 5] [nM] | EC50 (SARS-CoV-2-NLuc; read-out: MPro EC50) [nM] |
| --- | --- | --- | --- | --- | --- |
| COc1cc(Cl)c(-c2cc3c(s2)c(=O)n(-c2cncc4cnn(C)c24)c(=O)n3CCC#N)cc1F [Example 792] | 8.29 | 12.3 | – | – | – |
| O=c1[nH]c2cc(-c3ccccc3Cl)sc2c(=O)n1-c1cncc2ccc(F)cc12 [Example 622, 6-(2-chlorophenyl)-3-(6-fluoroisoquinolin-4-yl)thieno[3,2-d]pyrimidine-2,4(1H,3H)-dione] | 15.4 | – | 39.3 | – | – |
| Cc1c(Cl)cncc1-n1c(=O)c2sc(-c3ccc(F)cc3Cl)cc2n(CCC#N)c1=O [Example 807] | 20.6 | 35 | – | – | – |
| O=c1[nH]c2cc(-c3ccccc3Cl)sc2c(=O)n1-c1cncc2cccc(Cl)c12 [Example 600] | 5.29 | 18.1 | – | – | – |
| COc1cc(-c2cc3c(s2)c(=O)n(-c2cncc4nn(C)cc24)c(=O)n3CCC#N)c(Cl)cc1F [Example 909] | 5.94 | 12.3 | – | – | – |
| Cc1ccc(-c2cc3c(s2)c(=O)n(-c2cncc4cnn(C)c24)c(=O)n3CCC#N)c(C#N)c1 [Example 840] | 16.8 | 43.3 | – | – | – |
| COc1cc(-c2cc3c(s2)c(=O)n(-c2c(C)ccnc2F)c(=O)n3CCC#N)c(Cl)cc1F [Example 916] | 11.5 | 30.3 | – | – | – |
| Cc1ncc(-c2cccc(Cl)c2-c2cc3[nH]c(=O)n(-c4cncc5ccccc45)c(=O)c3s2)n1C [Example 521] | 14.9 | 129 | – | – | – |
| COc1cc(-c2cc3c(s2)c(=O)n(-c2cncc4nc(C(F)F)n(C)c24)c(=O)n3CCC#N)c(Cl)cc1F [Example 954] | 14.5 | 26 | – | – | – |
| COc1ccc(Cl)c(-c2cc3[nH]c(=O)n(-c4cncc5sc(C(C)(C)O)cc45)c(=O)c3s2)c1 [Example 515] | 8.51 | 17.5 | – | – | – |
| COc1ccc(Cl)c(-c2ccc3c(=O)n(-c4cncc5ccc(OC)cc45)c(=O)[nH]c3c2)c1 [Example 238] | – | – | 54.5 | 48 | – |
| O=c1[nH]c2cc(-c3ccccc3Cl)ccc2c(=O)n1-c1cnccc1C(F)(F)F [Example 125] | – | 17500 | – | 22500 | – |
| COc1cnc(C#N)c(-c2cc3[nH]c(=O)n(-c4cncc5cccc(F)c45)c(=O)c3s2)c1 [Example 761] | 45.6 | – | 398 | – | – |
| COc1cc(-c2cc3c(s2)c(=O)n(-c2cncc4ccccc24)c(=O)n3CCC#N)c(Cl)cc1F (single isomer, unassigned) [Example 637, 3-[6-(2-chloro-4-fluoro-5-methoxy-phenyl)-3-(4-isoquinolyl)-2,4-dioxo-thieno[3,2-d]pyrimidin-1-yl]propanenitrile] | 3.48 | – | – | – | 1.85 |
| Cn1ncc2cncc(-n3c(=O)c4sc(-c5ccccc5C#N)cc4n(CCC#N)c3=O)c21 [Example 782, 2-(1-(2-cyanoethyl)-3-(1-methyl-1H-pyrazolo[4,3-c]pyridin-7-yl)-2,4-dioxo-1,2,3,4-tetrahydrothieno[3,2-d]pyrimidin-6-yl)benzonitrile] | 15.5 | 39.8 | – | – | – |
| Cc1c(Cl)cncc1-n1c(=O)c2sc(-c3cc(F)c(F)cc3Cl)cc2n(CCC#N)c1=O [Example 847] | 8.09 | – | 19.8 | – | – |
| COc1cc(-c2cc3[nH]c(=O)n(-c4cncc5c4c(C)nn5CC(F)(F)F)c(=O)c3s2)c(Cl)cc1F [Example 741] | > 1000 | > 1000 | – | – | – |
| COc1ccc2cncc(-n3c(=O)[nH]c4cc(-c5ccccc5Cl)sc4c3=O)c2c1 (single isomer, unassigned) [Example 441, 6-(2-chlorophenyl)-3-(6-methoxyisoquinolin-4-yl)thieno[3,2-d]pyrimidine-2,4(1H,3H)-dione] | 109 | – | – | – | 239 |
| O=c1[nH]c2cc(-c3cc(OC(F)(F)F)ccc3Cl)sc2c(=O)n1-c1cncc2ccccc12 [Example 344] | – | 374 | – | 110 | – |
| COc1cc(-c2cc3[nH]c(=O)n(-c4cncc5cc(C(=O)N(C)C)sc45)c(=O)c3s2)c(Cl)cc1F [Example 1010, 7-[6-(2-chloro-4-fluoro-5-methoxy-phenyl)-2,4-dioxo-1H-thieno[3,2-d]pyrimidin-3-yl]-N,N-dimethyl-thieno[3,2-c]pyridine-2-carboxamide] | 3.29 | 69.2 | – | – | – |
| COc1cc(-c2cc3c(s2)c(=O)n(-c2cncc4cnn(C)c24)c(=O)n3CCN(C)C)c(Cl)cc1F [Example 1068] | 74.2 | 219 | – | – | – |
